Measured values published in EP0011277A1, “Dechloromaytansinoids, their production and use and pharmaceutical compositions containing them” (priority 1978, dated 1980).
Converted amounts (≈) assume the structure as drawn. Where two headings read alike, the source gives them in different places.

Legend:
Tetrahymena pyriformis W = assay: Antiprotozoal activity, growth inhibition by serial dilution method; type: cell-based; settings: read-out: Antiprotozoal activity MIC (μg/ml) Tetrahymena pyriformis W
Experimental: Antiprotozoal activity of compound (I) was assayed with Tetrahymena pyriformis W as the test organism and a medium composed of 20 g tryptose-peptone (Difoo Cc.), 1 g; yeast extract, 2 g glucose, 1000 mℓ distilled water, 10 mℓ IM phosphate buffer (pH 7.0) as the assay medium. The microorganism was incubated at 28°C for 44 to 48 hours and the growth inhibitory activity of compound (I) was assayed by the serial dilution method.

leukemia P-388 = assay: Antitumor therapeutic test in mice, leukemia P-388 (NCI protocol), life span prolongation; type: in vivo; settings: intraperitoneally once daily for 9 consecutive days
Experimental: (§1) Therapeutic tests were carried out in mice according to NCI-protocols 1,200 and 1,300, Cancer Chemother, Reports, Part 3, 1972, Vol.3, No.2, in which leukemia P-388 and melanoma B-16 tumor cells had been intraperitoneally transplanted, compound (I) being administered intraperitoneally once daily for 9 consecutive days.

melanoma B-16 = assay: Antitumor therapeutic test in mice, melanoma B-16 (NCI protocol), life span prolongation; type: in vivo; settings: intraperitoneally once daily for 9 consecutive days
Experimental: as §1

Row | Compound | MIC (Tetrahymena pyriformis W) [µg/mL] | Antitumor activities P-388 (T/C %) (leukemia P-388; Dose 50 µg/kg) | Antitumor activities P-388 (T/C %) (leukemia P-388; Dose 100 µg/kg) | Antitumor activities P-388 (T/C %) (leukemia P-388; Dose 200 µg/kg) | Antitumor activities P-388 (T/C %) (leukemia P-388; Dose 400 µg/kg) | Antitumor activities B-16 (T/C %) (melanoma B-16; Dose 100 µg/kg) | Antitumor activities B-16 (T/C %) (melanoma B-16; Dose 200 µg/kg) | Antitumor activities B-16 (T/C %) (melanoma B-16; Dose 400 µg/kg) | Antitumor activities B-16 (T/C %) (melanoma B-16; Dose 800 µg/kg) | MIC (Tetrahymena pyriformis W; incubated at 28°C for 44 to 48 hours, serial dilution method) [µg/mL]
1 | COc1cc2cc(c1)N(C)C(=O)CC(OC(=O)CCl)C1(C)OC1C(C)C1CC(O)(NC(=O)O1)C(OC)/C=C/C=C(\C)C2 (stereo not shown) [Dechloromaytansinol 3-chloroacetate, dechloromaytansinol 3-chloroacetate] | ≥ 4 | – | – | – | – | – | – | – | – | –
2 | COc1cc2cc(c1)N(C)C(=O)CC(OC(=O)C(C)C)C1(C)OC1C(C)C1CC(O)(NC(=O)O1)C(OC)/C=C/C=C(\C)C2 (stereo not shown) [Dechloromaytansinol 3-isobutyrate, dechloromaytansinol 3-isobutyrate] | – | 168 | 189 | 193 | 224 | 150 | 152 | 174 | 214 | –
3 | COc1cc2cc(c1)N(C)C(=O)CC(OC(=O)Cc1ccccc1)C1(C)OC1C(C)C1CC(O)(NC(=O)O1)C(OC)/C=C/C=C(\C)C2 (stereo not shown) [Dechloromaytansinol 3-phenylacetate, dechloromaytansinol 3-phenylacetate] | – | – | – | – | – | – | – | – | – | 2 (≈ 3.08 µM)
4 | COc1cc2cc(c1)N(C)C(=O)CC(OC(=O)C1CCCCC1)C1(C)OC1C(C)C1CC(O)(NC(=O)O1)C(OC)/C=C/C=C(\C)C2 (stereo not shown) [dechloromaytansinol 3-cyclohexanecarboxylate] | 4 (≈ 6.24 µM) | – | – | – | – | – | – | – | – | –
5 | dechloromaytansine | – | 158 | 165 | 175 | 189 | 171 | 152 | 179 | 190 | –
